Experimental data published in article PMC4249827, “A Novel CMKLR1 Small Molecule Antagonist Suppresses CNS Autoimmune Inflammatory Disease” (PLoS ONE, 2014).
Read-outs that look alike come from different tables or passages of the source. Marks after values point to notes of the source that are not given here.

Columns and labels:
[1] = molecular target: Tyrosyl-DNA phosphodiesterase 1 + camptothecin; design: method as in PubChem, 2014a; conditions: Cell-based (process); ref PubChem, 2014a; cited from earlier work
[2] = molecular target: Bacillus subtilis Sfp phosphopantetheinyl transferase; design: method as in PubChem, 2014a; conditions: Purified enzyme; ref PubChem, 2014a; cited from earlier work
[3] = mouse
[4] = molecular target: Choline acetyltransferase; conditions: Purified enzyme; ref Sastry et al., 1988a; cited from earlier work
[5] = molecular target: G9a histone lysine methyltransferase; design: method as in PubChem, 2014b; ref 23; conditions: Purified enzyme; ref PubChem, 2014b; cited from earlier work
Cytochrome p450 1A2 = conditions: cited from earlier work
[6] = test system: Lassa virus binding/entry; conditions: Cell-based; ref PubChem, 2014b; cited from earlier work
huCMKLR1 [7] = molecular target: T1, huCMKLR1 (Homo sapiens, UniProt Q99788); assay: β-arrestin2 (β-ARR2) enzymatic complementation assay, CMKLR1/CHO cells; format: cell-based; design: host or cells: CHO
T1 sequence (Q99788 1-373): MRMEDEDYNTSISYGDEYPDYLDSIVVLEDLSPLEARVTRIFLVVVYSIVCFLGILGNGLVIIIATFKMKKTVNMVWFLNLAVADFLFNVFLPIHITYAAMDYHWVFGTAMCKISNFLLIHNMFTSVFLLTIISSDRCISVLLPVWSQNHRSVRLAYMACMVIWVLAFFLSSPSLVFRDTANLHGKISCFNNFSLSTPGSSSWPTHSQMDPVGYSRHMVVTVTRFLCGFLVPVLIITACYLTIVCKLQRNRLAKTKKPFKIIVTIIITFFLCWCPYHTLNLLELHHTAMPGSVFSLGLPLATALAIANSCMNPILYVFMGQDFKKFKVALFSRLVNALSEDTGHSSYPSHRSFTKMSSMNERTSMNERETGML
From the text: The engagement of a chemoattractant receptor by its cognate ligand stimulates the recruitment of β-arrestin to the carboxyl-terminus of the receptor, an event that results in receptor internalization and termination of G protein-mediated signaling. […] To test this, we used an enzymatic complementation assay (the β-ARR2 assay), whereby the complementary fragments from the β-gal active site are fused to the carboxyl-terminus of CMKLR1 and β-arrestin2. The special association of these molecules leads to enzyme activity, which is detected by a chemiluminescent substrate.

GPR1 = GPR1 (Homo sapiens, UniProt P46091); assay: β-arrestin2 (β-ARR2) assay, GPR1/CHO cells, chemerin-stimulated
GPR1, sequence (P46091 whole entry, species assumed): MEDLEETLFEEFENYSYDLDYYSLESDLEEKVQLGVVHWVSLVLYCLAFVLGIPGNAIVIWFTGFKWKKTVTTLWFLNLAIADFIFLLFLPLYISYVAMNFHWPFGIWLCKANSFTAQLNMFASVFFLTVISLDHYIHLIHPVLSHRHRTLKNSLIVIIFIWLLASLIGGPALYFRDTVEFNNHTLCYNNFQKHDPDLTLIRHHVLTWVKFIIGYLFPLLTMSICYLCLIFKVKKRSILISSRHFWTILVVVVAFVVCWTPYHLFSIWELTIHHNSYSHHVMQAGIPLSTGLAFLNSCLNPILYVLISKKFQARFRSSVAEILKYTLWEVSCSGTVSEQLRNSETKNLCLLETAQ

[8] = within 5 min; depending on the temperature of incubation
CXCR4 = CXCR4 (Homo sapiens, UniProt P61073); assay: Transwell chemotaxis of CXCR4+ U937 cells to CXCL12
CXCR4, sequence (P61073 whole entry): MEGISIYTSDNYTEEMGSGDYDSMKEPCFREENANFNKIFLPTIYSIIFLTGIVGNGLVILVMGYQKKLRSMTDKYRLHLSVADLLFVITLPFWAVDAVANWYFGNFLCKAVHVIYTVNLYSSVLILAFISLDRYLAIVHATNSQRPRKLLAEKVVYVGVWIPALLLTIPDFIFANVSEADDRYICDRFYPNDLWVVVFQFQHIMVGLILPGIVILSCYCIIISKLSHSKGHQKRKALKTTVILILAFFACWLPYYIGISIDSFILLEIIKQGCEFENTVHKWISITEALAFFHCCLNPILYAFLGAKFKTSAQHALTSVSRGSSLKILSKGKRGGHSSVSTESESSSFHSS

[9] = test system: MPP8 chromodomain/methylated histones; design: method as in PubChem, 2014b; conditions: Purified protein (binding); ref PubChem, 2014b; cited from earlier work
[10] = molecular target: Aldehyde dehydrogenase 1 family, member A1 (ALDH1A1); design: method as in PubChem, 2014b; ref 22; conditions: Purified enzyme; ref PubChem, 2014b; cited from earlier work
CXCR5 = CXCR5 (Homo sapiens, UniProt P32302); assay: Transwell chemotaxis of CXCR5+ NC-37 cells to CXCL13
CXCR5, sequence (P32302 whole entry): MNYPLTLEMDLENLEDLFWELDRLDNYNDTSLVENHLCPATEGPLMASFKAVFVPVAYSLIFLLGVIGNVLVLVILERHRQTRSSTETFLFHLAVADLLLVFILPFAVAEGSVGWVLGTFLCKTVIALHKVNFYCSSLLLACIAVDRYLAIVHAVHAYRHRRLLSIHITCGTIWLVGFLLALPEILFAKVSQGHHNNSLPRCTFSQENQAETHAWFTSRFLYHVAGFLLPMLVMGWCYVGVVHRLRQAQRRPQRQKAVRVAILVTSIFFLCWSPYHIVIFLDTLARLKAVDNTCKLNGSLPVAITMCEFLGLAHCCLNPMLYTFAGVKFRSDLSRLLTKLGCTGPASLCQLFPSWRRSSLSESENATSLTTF

Cytochrome p450 2C19 = conditions: cited from earlier work
C57BL/6 mice [11] = assay: Preliminary in vivo toxicity, daily s.c. dosing for 16 days; design: species or system mouse; conditions: s.c. daily for 16 days, doses up to at least 10 mg/kg per day
From the text: Given the lack of adverse reactions in vivo, we next sought to test α-NETA for in vivo efficacy in the EAE model of MS.
The mice were then euthanized and vital organs weighed. Each symbol represents an individual mouse, and the bars indicate mean ± SEM, n = 3 mice per group. […] Control mice received either captisol vehicle or no treatment. […] For days 1–15, n = 52 mice per group; for days 16–27, n = 24–25 mice per group. * p<0.05 by Mann-Whitney U test.

DNA re-replication = test system: DNA re-replication; design: method as in PubChem, 2014b; conditions: Cell-based (process); ref PubChem, 2014b; read-out: Agonist activity, EC50 (µM), DNA re-replication; cited from earlier work
C57BL/6 mice [12] = assay: EAE induced by active immunization with MOG35-55/CFA in C57BL/6 mice; format: in vivo, mouse
huCMKLR1 [13] = molecular target: T1, huCMKLR1; assay: Transwell chemotaxis of huCMKLR1/L1.2 transfectants to chemerin
[14] = test system: Bacillus anthracis lethal toxin; conditions: Cell-based (process); ref PubChem, 2014a; cited from earlier work
[15] = test system: Marburg virus binding/entry; conditions: Cell-based; ref PubChem, 2014b; cited from earlier work
C57BL/6 mice [16] = assay: Histology and flow cytometry of CNS and spleen leukocytes in EAE mice (active immunization)
CCR9 = CCR9 (Homo sapiens, UniProt P51686); assay: Transwell chemotaxis of CCR9+ MOLT-4 cells to CCL25
CCR9, sequence (P51686 whole entry): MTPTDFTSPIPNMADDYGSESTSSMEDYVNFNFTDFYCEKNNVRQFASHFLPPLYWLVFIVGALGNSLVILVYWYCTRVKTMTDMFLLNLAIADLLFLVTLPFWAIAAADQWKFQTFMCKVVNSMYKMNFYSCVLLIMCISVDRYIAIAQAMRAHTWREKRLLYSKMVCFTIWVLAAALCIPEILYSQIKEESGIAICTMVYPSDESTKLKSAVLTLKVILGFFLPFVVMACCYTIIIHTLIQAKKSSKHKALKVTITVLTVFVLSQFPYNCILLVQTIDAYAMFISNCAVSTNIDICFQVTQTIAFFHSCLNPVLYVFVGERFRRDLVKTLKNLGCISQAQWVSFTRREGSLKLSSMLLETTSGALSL

Thrombopoietin = test system: Thrombopoietin; design: method as in PubChem, 2014a; conditions: Cell-based; ref PubChem, 2014a; cited from earlier work

Which IC50 [1] does the source give for `C[N+](C)(C)CCC(=O)c1cccc2ccccc12.[I-]` [α-NETA, 2-(α-naphthoyl)ethyltrimethylammonium iodide] here?
Its IC50 is 0.58 µM.

And the IC50 [2]?
Its IC50 is 18 µM.

What about the “detection of parent compound after in vivo dosing” value ([3]; iv, 0.5 mg/kg) of the same compound?
Its value is “unable to detect any of the parent compound”.

And the “detection of parent compound after in vivo dosing” value ([3]; sc, 10 mg/kg)?
The value was “unable to detect any of the parent compound”.

What about the IC50 [4] of the same compound?
The IC50 was 9 µM.

And the IC50 [5]?
Its IC50 is 0.5 µM.

And the IC50 (Cytochrome p450 1A2)?
Its IC50 is 8 µM.

What about the IC50 [6] of the same compound?
The IC50 was 10 µM.

And the IC50 (huCMKLR1 [7])?
The IC50 was 0.375 ± 0.042 µM.

What about the IC50 (huCMKLR1 [7]; IC50 (µM), β-arrestin, huCMKLR1, mean±SEM, n = 3-14 independent experiments) of the same compound?
The IC50 was 0.38 µM.

And the IC50 (GPR1)?
Its IC50 is 3.4 µM.

And the “fold less potent against GPR1 compared to activity against CMKLR1” value (GPR1; β-arrestin2 assay)?
The value was 10 fold.

What about the “parent compound no longer detectable by mass spectrometry after dissolution in 10% captisol” value [8] of the same compound?
Its value is 40–60%.

What about the IC50 (CXCR4) of the same compound?
Its IC50 is no less than 10 µM.

And the “inhibition of migration of CXCR4+ cells to CXCL12” value (CXCR4; 1, 3, and 10 µM)?
Its value is “did not inhibit”.

And the IC50 [9]?
Its IC50 is 10 µM.

And the IC50 [10]?
Its IC50 is 0.04 µM.

What about the IC50 (CXCR5) of the same compound?
Its IC50 is no less than 10 µM.

And the “inhibition of migration of CXCR5+ NC-37 cells to CXCL13” value (CXCR5; 1, 3, and 10 µM)?
Its value is “did not inhibit”.

What about the IC50 (Cytochrome p450 2C19) of the same compound?
The IC50 was no less than 10 µM.

And the “IC50 (µM), Cytochrome p450 2C19” value (Cytochrome p450 2C19)?
The value was “Inactive ^j”.

And the “in vivo tolerability (survival, weight gain, appearance, behavior, organ wet weight)” value (C57BL/6 mice [11])?
The value was “well tolerated”.

And the EC50 (DNA re-replication)?
The EC50 was 1.8 µM.

And the “mice that did not develop clinical EAE by day 27” value (C57BL/6 mice [12]; 10 mg/kg daily s.c.)?
Its value is roughly 30%.

What about the “suppression of clinical signs beyond first appearance of disease in control mice” value (C57BL/6 mice [12]; 10 mg/kg daily s.c.) of the same compound?
The value was “completely suppressed clinical signs for an average of nine days”.

What about the “severity of clinical disease” value (C57BL/6 mice [12]; 10 mg/kg daily s.c., through day 25) of the same compound?
The value was “significantly reduced”.

And the “onset of EAE” value (C57BL/6 mice [12]; doses as low as 3 mg/kg daily s.c., not shown)?
The value was “significantly delayed the onset of EAE”.

What about the “effect on ongoing clinical EAE” value (C57BL/6 mice [12]; treatment initiated upon onset of clinical signs, data not shown) of the same compound?
Its value is “failed to reverse ongoing clinical EAE”.

And the IC50 (huCMKLR1 [13])?
The IC50 was 6.5 ± 0.7 µM.

And the IC50 [14]?
The IC50 was 25 µM.

What about the IC50 [15] of the same compound?
The IC50 was 4.5 µM.

And the “total cells in the spleen” value (C57BL/6 mice [16]; 16 days p.i., did not reach statistical significance)?
Its value is “more total cells in the spleen”.

What about the “total cells in the CNS” value (C57BL/6 mice [16]; 16 days p.i., p<0.05) of the same compound?
The value was “fewer total cells in the CNS”.

And the “total numbers of splenic NK cells” value (C57BL/6 mice [16]; EAE mice, not shown)?
The value was “did not induce detectable changes”.

What about the “numbers of CNS lesions” value (C57BL/6 mice [16]; chronic EAE, day 37 p.i., data not shown) of the same compound?
Its value is “no differences in numbers of CNS lesions”.

And the “leukocyte accumulation within the CNS (T cells, B cells, dendritic cells, macrophages)” value (C57BL/6 mice [16]; day 16 p.i., no apparent preferential or selective effect on subsets)?
Its value is “suppressed leukocyte accumulation”.

What about the “meningeal and parenchymal CNS inflammatory foci” value (C57BL/6 mice [16]; peak acute EAE, day 16 p.i.) of the same compound?
The value was “fewer meningeal and parenchymal CNS inflammatory foci”.

What about the “% of NK cells (CD3-NK1.1+) in lymphocyte scatter gate” value (C57BL/6 mice [16]; spleen, day 16 post-EAE induction, n = 5 mice per group) of the same compound?
The value was 0.8 (0.1) ^* %.

What about the IC50 (CCR9) of the same compound?
The IC50 was no less than 10 µM.

What about the “inhibition of migration of CCR9+ MOLT4 cells to CCL25” value (CCR9; 1, 3, and 10 µM) of the same compound?
The value was “did not inhibit”.

What about the IC50 (Thrombopoietin) of the same compound?
Its IC50 is 2.5 µM.
